Reference: US20250206761A1, “HALOINDOLE MACROCYCLIC COMPOUNDS FOR THE TREATMENT OF CANCER” (Hoffmann-La Roche Inc., priority 2022, published 2025)

What was measured:
[1] = tested on: NCI-H358 (ATCC-CRL5807) cells; assay: Cell viability assay, G12C (NCI-H358); assay type: cell-based, human; conditions: Homo sapiens; KRAS cell viability, NCI-H358, 72 hrs, Cell Counting Kit-8
Procedure, shortened: (§1)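 Seed NCI-H358 5,000/well, AGS and SW620 2,000/well; overnight. Compound, 0.5% DMSO final, 72 hrs. CCK-8 2 hrs, OD450–OD650. IC50: 4-parameter fit.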

[2] = tested on: AGS (ATCC-CRL-1739) cells; assay: Cell viability assay, G12D (AGS); assay type: cell-based, human; conditions: Homo sapiens, KRAS cell viability, 72 hrs, Cell Counting Kit-8
Procedure, shortened: as §1

[3] = tested on: SW620 (ATCC-CCL-227); assay: Cell viability assay, G12V (SW620); assay type: cell-based, human; conditions: Homo sapiens, SW-620; KRAS cell viability, SW620, 72 hrs, Cell Counting Kit-8
Procedure, shortened: as §1

[4] = tested on: phosphorylation of ERK, KRAS G12C in NCJ-H358 cells; assay: pERK inhibition assay, KRAS G12C; assay type: cell-based, human; conditions: Homo sapiens, 4 hours
Procedure, shortened: (§2)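 Plate cells, attach overnight; add compound (0.5% DMSO) for 4 h; fix in 4% formaldehyde, permeabilize with chilled methanol; block; incubate pERK antibody overnight at 4 °C, then HRP secondary; develop with TMB, stop, read OD450; fit 4-parameter curve for IC50.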

[5] = tested on: phosphorylation of ERK, KRAS G12D in AGS cells; assay: pERK inhibition assay, KRAS G12D; assay type: cell-based, human; conditions: Homo sapiens, 4 hours
Experimental: This assay is to measure the ability of test compounds in inhibiting the phosphorylation of ERK, the downstream signaling of KRAS G12C in NCJ-H358 cells, KRAS G12D in AGS cells, and KRAS G12V in SW620. NCJ-H358 (ATCC-CRL5807) cells, AGS (ATCC-CRL-1739) cells, SW620 (ATCC-CCL-227) cells were all grown and maintained using RPMI-1640 medium (Thermo Fisher Scientific) with 10% fetal bovine serum and 1% penicillin/streptomycin. On the day prior to compound addition, cells were plated in tissue culture-treated 96 well plates (Corning-3699) at a density of 30,000 cell/well, 20,000 cell/well, 30,000 cell/well for NCJ-H358, AGS and SW620 respectively, and allowed for attachment overnight. Diluted compounds were then added in a final concentration of 0.5% DMSO. After 4 hours of incubation, the medium was removed, 100 μL of 4% formaldehyde was added, and the assay plates were incubated at room temperature for 20 minutes. The plates were then washed once with phosphate buffered saline (PBS), and permeabilized with 100 μL of chilled methanol for 10 minutes. Non-specific antibody binding to the plates was blocked using 50 μL 1×BSA blocking buffer (Thermo-37520, 10-fold dilution by Phosphate-Buffered Saline Tween (PBST) for at least 1 hour at room temperature.
The amount of phosphor-ERK was determined using an antibody specific for phosphorylated form of ERK. Primary antibody (pERK, CST-4370, Cell Signaling Technology) was diluted 1:300 in blocking buffer, with 50 μL aliquoted to each well, and incubated overnight at 4′° C. Cells was washed five times for 5 minutes with PBST. Secondary antibody ([…] anti-rabbit IgG, CST-7074, Cell Signaling Technology) was diluted 1:1000 in blocking buffer, and 50 μL was added to each well and incubated 1-2 hrs at room temperature. Cells was washed 5 times for 5 minutes with PBST, 100 μL TMB ELISA substrate (abcam-ab171523) were added and gently shake for 20 minutes. 50 μL stop solution (abcam-ab171529) were added, and then read the signal (OD450) by EnVision.
IC50 was determined by fitting a 4-parameter sigmoidal concentration response model.

[6] = tested on: phosphorylation of ERK, KRAS G12V in SW620; assay: pERK inhibition assay, KRAS G12V; assay type: cell-based, human; conditions: Homo sapiens, SW-620, SW620, 4 hours
Procedure, shortened: as §2

[7] = biological target: KRAS G12C-BRAF complex (Homo sapiens (Human), UniProt P01116+P62937, G12C); assay: KRAS-BRAF with CYPA (500 nM) interaction assay (TR-FRET), G12C; assay type: biochemical
[8] = biological target: KRAS G12D binding to BRAF (Homo sapiens (Human), UniProt P01116+P62937, G12D); assay: KRAS-BRAF with CYPA (500 nM) interaction assay (TR-FRET), G12D; assay type: biochemical
[9] = biological target: KRAS G12V binding to BRAF (Homo sapiens (Human), UniProt P01116+P62937, G12V); assay: KRAS-BRAF with CYPA (500 nM) interaction assay (TR-FRET), G12V; assay type: biochemical
Procedure, shortened: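 A TR-FRET assay measured how compound, in the presence of CYPA, disrupts binding of GMPPNP-loaded 6His-KRAS G12V to BRAF. The buffer contained 25 mM HEPES PH=7.4, 0.002% Tween20, 0.1% BSA, 100 mM NaCl, 5 mM MgCl2 and 10 μM GMPPNP. Compounds ran as a 16-point 3-fold dilution series from 10 μM for 3 hours.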

Sequence of KRAS G12V binding to BRAF (P01116-2 other isoform, or with tags, fused parts or gaps G12V): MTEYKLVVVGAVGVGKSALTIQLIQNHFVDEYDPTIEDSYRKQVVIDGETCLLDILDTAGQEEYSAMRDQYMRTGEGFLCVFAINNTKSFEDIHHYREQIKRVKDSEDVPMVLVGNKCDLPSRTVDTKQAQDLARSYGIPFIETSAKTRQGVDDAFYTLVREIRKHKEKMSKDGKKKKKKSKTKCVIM
Sequence of KRAS G12V binding to BRAF (P62937 whole entry): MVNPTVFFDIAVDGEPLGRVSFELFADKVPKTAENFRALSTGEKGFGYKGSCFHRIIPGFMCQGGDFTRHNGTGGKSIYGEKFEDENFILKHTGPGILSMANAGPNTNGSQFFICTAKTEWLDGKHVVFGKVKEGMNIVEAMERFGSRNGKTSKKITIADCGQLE
Sequence of KRAS G12C-BRAF complex (P01116-2 other isoform, or with tags, fused parts or gaps G12C): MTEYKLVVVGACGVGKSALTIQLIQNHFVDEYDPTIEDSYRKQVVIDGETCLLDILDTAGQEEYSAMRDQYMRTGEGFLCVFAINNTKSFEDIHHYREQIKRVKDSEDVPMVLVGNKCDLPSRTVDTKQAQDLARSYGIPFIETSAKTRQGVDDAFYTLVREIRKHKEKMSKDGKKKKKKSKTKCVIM
Sequence of KRAS G12C-BRAF complex (P62937 whole entry): as the sequence (P62937 whole entry) above
Sequence of KRAS G12D binding to BRAF (P01116-2 other isoform, or with tags, fused parts or gaps G12D): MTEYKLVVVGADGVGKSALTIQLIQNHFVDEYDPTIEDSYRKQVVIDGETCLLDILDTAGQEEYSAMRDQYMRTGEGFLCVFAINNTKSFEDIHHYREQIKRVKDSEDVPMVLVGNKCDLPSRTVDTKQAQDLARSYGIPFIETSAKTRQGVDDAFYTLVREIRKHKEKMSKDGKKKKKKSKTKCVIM
Sequence of KRAS G12D binding to BRAF (P62937 whole entry): as the sequence (P62937 whole entry) above

CO[C@@H](C)c1ncc(N2CCN(C)CC2)cc1-c1c2c3c(F)c(ccc3n1CC(F)(F)F)-c1csc(n1)C[C@H](NC(=O)[C@H](C(C)C)N(C)C(=O)[C@H]1CCN(C(=O)[C@H](F)Cl)C1)C(=O)N1CCC[C@H](N1)C(=O)OCC(C)(C)C2 (atropisomer, axis not shown; (M)) [Example 1, (3S)-1-[(2R)-2-chloro-2-fluoro-acetyl]-N-[(1S)-1-[[(7S,13S)-25-fluoro-(20M)-20-[2-[(1S)-1-methoxyethyl]-5-(4-methylpiperazin-1-yl)-3-pyridyl]-17,17-dimethyl-8,14-dioxo-21-(2,2,2-trifluoroethyl)-15-oxa-4-thia-9,21,27,28-tetrazapentacyclo[17.5.2.1^2,5.1^9,13.0^22,26]octacosa-1(25),2,5(28),19,22(26),23-hexaen-7-yl]carbamoyl]-2-methyl-propyl]-N-methyl-pyrrolidine-3-carboxamide]
IC50 [1]: 5 nM
IC50 [2]: 390 nM
IC50 [3]: 92 nM
IC50 [4]: 7 nM
IC50 [5]: 137 nM
IC50 [6]: 55 nM

CCn1c(-c2cccnc2COC)c2c3cc(ccc31)-c1cc(O)cc(c1)C[C@H](NC(=O)[C@H](C(C)C)N(C)C(=O)C1CN(C(=O)[C@H](F)Cl)C1)C(=O)N1CCC[C@H](N1)C(=O)OCC(C)(C)C2 [RM461-A, reference compound]
IC50 [1]: 45 nM
IC50 [2]: 7920 nM
IC50 [7]: 27 nM
IC50 [8]: > 10000 nM
IC50 [9]: 6080 nM
IC50 [4]: 49 nM
IC50 [5]: > 10000 nM

CCn1c(-c2cc(N3CCN(C)CC3)cnc2[C@H](C)OC)c2c3cc(c(F)cc31)-c1csc(n1)C[C@H](NC(=O)[C@H](C(C)C)N(C)C(=O)[C@H]1CCN(C(=O)[C@H](F)Cl)C1)C(=O)N1CCC[C@H](N1)C(=O)OCC(C)(C)C2 (atropisomer, axis not shown; (M)) [Example 32, (3S)-1-[(2R)-2-chloro-2-fluoro-acetyl]-N-[(1S)-1-[[(7S,13S)-21-ethyl-24-fluoro-(20M)-20-[2-[(1S)-1-methoxyethyl]-5-(4-methylpiperazin-1-yl)-3-pyridyl]-17,17-dimethyl-8,14-dioxo-15-oxa-4-thia-9,21,27,28-tetrazapentacyclo[17.5.2.1^2,5.1^9,13.0^22,26]octacosa-1(25),2,5(28),19,22(26),23-hexaen-7-yl]carbamoyl]-2-methyl-propyl]-N-methyl-pyrrolidine-3-carboxamide]
IC50 [1]: < 1 nM
IC50 [2]: 792 nM
IC50 [3]: 430 nM
IC50 [7]: 56 nM
IC50 [8]: > 10000 nM
IC50 [9]: > 10000 nM
IC50 [4]: 1 nM
IC50 [5]: 14 nM
IC50 [6]: 21 nM

CCn1c(-c2cc(N3CCN(C)CC3)cnc2[C@H](C)OC)c2c3cc(c(F)cc31)-c1csc(n1)C[C@H](NC(=O)[C@H](C(C)C)N1CC[C@]3(CCN(C(=O)[C@H](F)Cl)C3)C1=O)C(=O)N1CCC[C@H](N1)C(=O)OCC(C)(C)C2 (atropisomer, axis not shown; (M)) [Example 31, (2S)-2-[(5S)-7-[(2R)-2-chloro-2-fluoro-acetyl]-1-oxo-2,7-diazaspiro[4.4]nonan-2-yl]-N-[(7S,13S)-21-ethyl-24-fluoro-(20M)-20-[2-[(1S)-1-methoxyethyl]-5-(4-methylpiperazin-1-yl)-3-pyridyl]-17,17-dimethyl-8,14-dioxo-15-oxa-4-thia-9,21,27,28-tetrazapentacyclo[17.5.2.1^2,5.1^9,13.0^22,26]octacosa-1(25),2,5(28),19,22(26),23-hexaen-7-yl]-3-methyl-butanamide]
IC50 [1]: < 1 nM
IC50 [2]: 237 nM
IC50 [3]: 44 nM
IC50 [7]: 44 nM
IC50 [8]: > 10000 nM
IC50 [9]: 1980 nM
IC50 [4]: 5 nM
IC50 [5]: 24 nM
IC50 [6]: 12 nM

CCn1c(-c2cc(N3CCN(C)CC3)cnc2[C@H](C)OC)c2c3cc(c(F)cc31)-c1csc(n1)C[C@H](NC(=O)[C@H](C(C)C)N1CC[C@@]3(CCN(C(=O)[C@H](F)Cl)C3)C1=O)C(=O)N1CCC[C@H](N1)C(=O)OCC(C)(C)C2 (atropisomer, axis not shown; (M)) [Example 30, (2S)-2-[(5R)-7-[(2R)-2-chloro-2-fluoro-acetyl]-1-oxo-2,7-diazaspiro[4.4]nonan-2-yl]-N-[(7S,13S)-21-ethyl-24-fluoro-(20M)-20-[2-[(1S)-1-methoxyethyl]-5-(4-methylpiperazin-1-yl)-3-pyridyl]-17,17-dimethyl-8,14-dioxo-15-oxa-4-thia-9,21,27,28-tetrazapentacyclo[17.5.2.1^2,5.1^9,13.0^22,26]octacosa-1(25),2,5(28),19,22(26),23-hexaen-7-yl]-3-methyl-butanamide]
IC50 [1]: < 1 nM
IC50 [2]: 435 nM
IC50 [3]: 1050 nM
IC50 [7]: 38 nM
IC50 [8]: > 10000 nM
IC50 [9]: > 10000 nM
IC50 [4]: 2 nM
IC50 [5]: 21 nM
IC50 [6]: 100 nM

CO[C@@H](C)c1ncc(N2CCN(CC(F)(F)F)CC2)cc1-c1c2c3cc(c(F)cc3n1CC(F)(F)F)-c1csc(n1)C[C@H](NC(=O)[C@H](C(C)C)N1CCC3(CN(C(=O)[C@H](F)Cl)C3)C1=O)C(=O)N1CCC[C@H](N1)C(=O)OCC(C)(C)C2 (atropisomer, axis not shown; (M)) [Example 46, (2S)-2-[2-[(2R)-2-chloro-2-fluoro-acetyl]-5-oxo-2,6-diazaspiro[3.4]octan-6-yl]-N-[(7S,13S)-24-fluoro-(20M)-20-[2-[(1S)-1-methoxyethyl]-5-[4-(2,2,2-trifluoroethyl)piperazin-1-yl]-3-pyridyl]-17,17-dimethyl-8,14-dioxo-21-(2,2,2-trifluoroethyl)-15-oxa-4-thia-9,21,27,28-tetrazapentacyclo[17.5.2.1^2,5.1^9,13.0^22,26]octacosa-1(25),2,5(28),19,22(26),23-hexaen-7-yl]-3-methyl-butanamide]
IC50 [1]: 3 nM
IC50 [2]: 300 nM
IC50 [3]: 168 nM
IC50 [7]: 129 nM
IC50 [8]: 1060 nM
IC50 [9]: 1230 nM
IC50 [4]: 9 nM
IC50 [5]: 299 nM
IC50 [6]: 627 nM

CCn1c(-c2cc(N3CCN(CC(F)(F)F)CC3)cnc2[C@H](C)OC)c2c3cc(c(F)cc31)-c1csc(n1)C[C@H](NC(=O)[C@H](C(C)C)N(C)C(=O)[C@H]1CCN(C(=O)[C@H](F)Cl)C1)C(=O)N1CCC[C@H](N1)C(=O)OCC(C)(C)C2 (atropisomer, axis not shown; (M)) [Example 33, (3S)-1-[(2R)-2-chloro-2-fluoro-acetyl]-N-[(1S)-1-[[(7S,13S)-21-ethyl-24-fluoro-(20M)-20-[2-[(1S)-1-methoxyethyl]-5-[4-(2,2,2-trifluoroethyl)piperazin-1-yl]-3-pyridyl]-17,17-dimethyl-8,14-dioxo-15-oxa-4-thia-9,21,27,28-tetrazapentacyclo[17.5.2.1^2,5.1^9,13.0^22,26]octacosa-1(25),2,5(28),19,22(26),23-hexaen-7-yl]carbamoyl]-2-methyl-propyl]-N-methyl-pyrrolidine-3-carboxamide]
IC50 [1]: < 1 nM
IC50 [2]: 338 nM
IC50 [3]: 39 nM
IC50 [7]: 18 nM
IC50 [8]: > 10000 nM
IC50 [9]: > 10000 nM
IC50 [4]: 4 nM
IC50 [5]: 19 nM
IC50 [6]: 8 nM
